The target in assay [1] is T1, Chromodomain Y-like protein 2 (Homo sapiens) (UniProt Q8N8U2).
T1 sequence (whole entry): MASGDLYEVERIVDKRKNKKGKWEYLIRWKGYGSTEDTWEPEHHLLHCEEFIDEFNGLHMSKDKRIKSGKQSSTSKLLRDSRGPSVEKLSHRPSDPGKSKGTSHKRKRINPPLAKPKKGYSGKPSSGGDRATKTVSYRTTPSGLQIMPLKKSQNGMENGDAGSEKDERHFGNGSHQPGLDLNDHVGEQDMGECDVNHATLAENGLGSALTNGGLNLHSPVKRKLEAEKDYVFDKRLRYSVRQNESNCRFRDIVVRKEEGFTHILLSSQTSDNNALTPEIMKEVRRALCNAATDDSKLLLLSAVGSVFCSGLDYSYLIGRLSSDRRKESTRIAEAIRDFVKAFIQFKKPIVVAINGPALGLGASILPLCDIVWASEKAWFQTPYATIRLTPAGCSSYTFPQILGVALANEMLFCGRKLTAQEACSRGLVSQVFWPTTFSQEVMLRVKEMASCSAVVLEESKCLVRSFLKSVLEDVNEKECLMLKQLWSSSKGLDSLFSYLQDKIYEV
Nature of the assay: Binding affinity to recombinant human CDYL2 by microarray based assay.

The target in assay [2] is T2, E3 SUMO-protein ligase CBX4 (Homo sapiens) (UniProt O00257).
T2 sequence (whole entry): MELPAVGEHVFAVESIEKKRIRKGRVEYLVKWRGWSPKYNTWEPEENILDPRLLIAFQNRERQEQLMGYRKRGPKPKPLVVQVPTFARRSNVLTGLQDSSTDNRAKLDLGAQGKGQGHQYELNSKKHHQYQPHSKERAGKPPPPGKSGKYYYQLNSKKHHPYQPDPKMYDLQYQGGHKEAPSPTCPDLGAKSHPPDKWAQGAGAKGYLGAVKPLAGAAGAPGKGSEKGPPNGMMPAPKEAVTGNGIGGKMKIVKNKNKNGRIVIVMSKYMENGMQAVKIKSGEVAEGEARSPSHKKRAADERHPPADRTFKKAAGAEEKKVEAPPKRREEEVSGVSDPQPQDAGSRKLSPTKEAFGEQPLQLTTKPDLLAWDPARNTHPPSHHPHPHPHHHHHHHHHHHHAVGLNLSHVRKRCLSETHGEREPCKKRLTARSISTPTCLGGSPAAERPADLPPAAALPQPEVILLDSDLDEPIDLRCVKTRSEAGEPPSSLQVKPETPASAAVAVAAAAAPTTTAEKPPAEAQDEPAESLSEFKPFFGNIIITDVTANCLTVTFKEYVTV
Nature of the assay: Binding affinity to recombinant human CBX4 by microarray based assay.

Calls of active or inactive are those of the source. The rule behind the calls is not given here. Non-standard residues stand in square brackets, D forms with d. Residues, ends and D or L forms follow the SMILES beside them. *: point of attachment. Biotin = O=C1N[C@H]2[C@H](CS[C@H]2CCCCC(=O)*)N1; Lys(Me3) = C[N+](C)(C)CCCC[C@H](N)C(=O)O; Benzoyl(4-Br) = O=C(c1ccc(Br)cc1)*

For `CC(C)C[C@H](NC(=O)[C@H](CO)NC(=O)[C@H](CCCC[N+](C)(C)C)NC(=O)[C@H](Cc1ccc(O)cc1)NC(=O)[C@H](C)NC(=O)[C@H](Cc1ccccc1)NC(=O)c1ccc(Br)cc1)C(=O)N[C@@H](CCCCNC(=O)CCCC[C@@H]1SC[C@@H]2NC(=O)N[C@@H]21)C(N)=O` ({Benzoyl(4-Br)}-FAY[Lys(Me3)]SLK(Biotin)-NH2), the result in assay [1] and in assay [2] was Active.

Source of the values: ChEMBL document CHEMBL4609983, “Pan-specific and partially selective dye-labeled peptidic inhibitors of the polycomb paralog proteins” (Bioorg Med Chem, 2020).
